Results on 20 compounds are retold here after US6172056A, “Pharmaceutical compositions and method for prophylaxis and therapy of radical-mediated cell damage” (Jenapharm GmbH & Co. KG, priority 1993, dated 2001).

The test system of assay [1] is lipid peroxidation (synaptosomal membrane fraction, Fenton's reagent). The assay can be described thus: In vitro inhibition of lipid peroxidation, thiobarbituric acid test. The class given is biochemical. Conditions: 30 min at 37° C.
The subject of the next assay is peroxidation. Conditions: literature statement; cited from earlier work.
For assay [2], the system named is LDL, isolated from human whole blood. The assay can be described thus: In vitro inhibition of LDL oxidation (Esterbauer et al), CuSO4-induced. Conditions: 5 μmol test compound, 10 μmol CuSO4.
A further assay has as its target T1, estrogen receptor (Oryctolagus cuniculus, UniProt G1SML6).
T1 construct: in uterine cytosol of the infantile rabbit; from tissue; host or cells: uterine cytosol of infantile rabbit
T1 sequence (G1SML6 1-598): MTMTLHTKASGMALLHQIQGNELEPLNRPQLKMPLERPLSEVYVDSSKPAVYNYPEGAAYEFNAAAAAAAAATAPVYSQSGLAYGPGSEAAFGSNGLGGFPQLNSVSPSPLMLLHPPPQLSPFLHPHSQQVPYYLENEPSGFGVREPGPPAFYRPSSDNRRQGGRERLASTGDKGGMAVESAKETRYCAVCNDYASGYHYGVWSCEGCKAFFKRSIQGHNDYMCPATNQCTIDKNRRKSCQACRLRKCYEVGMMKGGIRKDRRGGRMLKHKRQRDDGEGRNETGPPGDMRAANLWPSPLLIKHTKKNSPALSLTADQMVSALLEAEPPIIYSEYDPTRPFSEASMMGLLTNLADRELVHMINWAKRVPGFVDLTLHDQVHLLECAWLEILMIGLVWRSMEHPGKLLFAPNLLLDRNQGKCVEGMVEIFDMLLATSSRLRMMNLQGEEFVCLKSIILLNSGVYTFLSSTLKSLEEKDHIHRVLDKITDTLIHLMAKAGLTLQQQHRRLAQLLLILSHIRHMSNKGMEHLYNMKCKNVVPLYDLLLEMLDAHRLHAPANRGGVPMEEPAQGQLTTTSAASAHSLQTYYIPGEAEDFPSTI
The assay can be described thus: Estrogen receptor binding, competitive with 3H-ethinyl estradiol in uterine cytosol. Conditions: RBA relative to 17β-estradiol, infantile rabbit uterine cytosol, 0° C. As to the method:
Statements about estrogen affinity are made by measuring the estrogen receptor binding.
Measuring the estrogen receptor binding is done by competitive binding of the ^3 H-labelled synthetic estrogen ethinyl estradiol and of the compounds to be tested in uterine cytosol of the infantile rabbit at 0° C. Reaction equilibrium and receptor saturation are the goal.
With the statement about the RBA values, the estrogen receptor affinity of the particular compound is characterized; taking into account certain prerequisites for in vitro investigations (such as a free 30H group), it is a measure for estrogen affinity (again, see Table 1).

`COc1cc2c(cc1O)[C@H]1CC[C@]3(C)[C@@H](O)CC[C@H]3[C@@H]1CC2` [2-Hydroxyestradiol-3-methyl ether]: half-maximal inhibition in assay [1] (IC50) required 3.2 µM. Regarding `C[C@]12CC[C@@H]3c4cc(O)c(O)cc4CC[C@H]3[C@@H]1CC[C@@H]2O` [2-hydroxyestradiol], the “Inhibition of peroxidation in vitro and in vivo” value (“Inhibition of peroxidation” for short) in the assay on peroxidation is “inhibit peroxidation in vitro and in vivo”. In turn, `C[C@]12CC=C3c4ccc(O)cc4CC[C@H]3[C@@H]1CC[C@@]21CO1` [3-Hydroxy-1,3,5(10),9(11)-estratetraene-17S-spirooxirane] yielded an IC50 in assay [1] of 0.81 µM. The “LDL oxidation inhibition (prolongation of the lag phase in min)” value (shortened to “LDL oxidation inhibition”) in assay [2] is 210 min. The like results for `C[C@]12CC[C@@H]3c4ccc(O)cc4CC[C@H]3[C@@H]1CC[C@@]21CO1` [3-Hydroxy-1,3,5(10)-estratriene-17S-spirooxirane] were, in that order, 4.11 µM and 170 min. For `C[C@]12CCc3c(ccc4cc(O)ccc34)[C@@H]1CC[C@H]2O` [6,8-Didehydro-17α-estradiol], in assay [1], the IC50 stood at 5.1 µM. Consider `C[C@]12CC[C@@H]3c4ccc(O)cc4C=C[C@H]3[C@@H]1C[C@@H](O)[C@@H]2O` [6-Dehydroestriol], for which inhibition in assay [1] was half-maximal at 45.6 µM (IC50). In addition, the “Relative binding affinity to estrogen receptor” value (“Relative binding affinity” below) on estrogen receptor is given as 7.9%.

In assay [1], `C[C@]12CCC3=C(CCc4cc(O)ccc43)[C@@H]1CC[C@H]2O` [8-Dehydro-17α-estradiol] registered an IC50 of 4.1 µM. In assay [1], `C[C@]12CCC3=C(CCc4cc(O)ccc43)[C@@H]1CC[C@@H]2O` [8-Dehydroestradiol] had a half-maximal inhibitory concentration (IC50) of 1 µM. Moreover, on estrogen receptor, the “Relative binding affinity” value was 59.6%. For the same compound, in assay [2], the “LDL oxidation inhibition” value worked out at 120 min.

The compound `C[C@]12CC=C3c4ccc(O)cc4CC[C@H]3[C@@H]1C[C@@H](O)[C@@H]2O` [9(11)-dehydroestriol] returned an IC50 in assay [1] of 10.6 µM. For the same compound, the “Relative binding affinity” value at estrogen receptor came to 7.5%. In assay [1], `C[C@]12CC[C@@H]3c4ccc(O)cc4CC[C@H]3[C@@]13C[C@H]3C[C@@H]2O` [14α,15α-Methylene estradiol] yielded an IC50 of 5 to 10 µM. The same measure, in the same setting: the result for `C[C@]12CCC3=C(CCc4cc(O)ccc43)[C@@]13C[C@H]3C[C@@H]2O` [14α,15α-Methylene-8-dehydroestradiol] reads 0.9 µM; that for `C[C@]12CCC3=C(CCc4cc(O)ccc43)[C@]13C[C@@H]3C[C@@H]2O` [14β,15β-Methylene-8 dehydroestradiol, 14β,15β-methylene-8-dehydroestradiol], 1.9 µM; that for `C[C@]12CC[C@@H]3c4ccc(O)cc4CC[C@H]3[C@@H]1CC[C@H]2O` [17α-Estradiol], 8.9 µM. For `C[C@]12CC[C@@H]3c4ccc(O)cc4CC[C@H]3[C@@H]1CC[C@@H]2O` [17β-Estradiol, reference compound], in assay [1], the concentration for half-maximal inhibition (IC50) stood at 12.4 µM. The “Inhibition of peroxidation” value in the assay with peroxidation is “inhibit peroxidation in vitro and in vivo”. The “LDL oxidation inhibition” value in assay [2] is listed as 110 min.

As to `CC(CO)[C@H]1CC[C@H]2[C@@H]3CCc4cc(O)ccc4[C@H]3CC[C@]12C` (stereo partly shown) [20-hydroxymethyl-3-hydroxy-19-norpregna-1,3,5(10)-triene], in assay [1], the IC50 came to 14.4 µM. Also, at estrogen receptor, the “Relative binding affinity” value stood at 22.5%. In assay [1], `Cc1c(C)c2c(c(C)c1O)CCC(C)(CN1CCN(c3cc(N4CCCC4)nc(N4CCCC4)n3)CC1)O2` (stereo not shown) [Compound U-78517F, reference compound] returned a half-maximal inhibitory concentration (IC50) of 1.8 µM. The “LDL oxidation inhibition” value in assay [2] is reported as 70 min.

`C[C@]12CC[C@@H]3c4ccc(O)cc4CC[C@H]3[C@@H]1C[C@@H](O)[C@@H]2O` [Estriol, reference compound] showed an IC50 in assay [1] of 122 µM. For the same compound, the “Relative binding affinity” value at estrogen receptor is given as 10.3%. For the same compound, in the assay with peroxidation, the “Inhibition of peroxidation” value is “inhibit peroxidation in vitro and in vivo”. The “LDL oxidation inhibition” value in assay [2] was determined as 45 min. In the case of `C[C@@]12CC[C@H]3c4ccc(O)cc4CC[C@@H]3[C@H]1CC[C@H]2O` [ent-Estradiol], the IC50 in assay [1] came out at 8.8 µM. Also, the “LDL oxidation inhibition” value in assay [2] is 120 min. Take `C[C@]12CC[C@@H]3c4ccc(O)cc4CC[C@H]3[C@@H]1CCC2=O` [estrone]: the “Inhibition of peroxidation” value with peroxidation was “inhibit peroxidation in vitro and in vivo”. For the compound Vitamin E [reference compound], the IC50 in assay [1] is 132 µM.
